Literature values as cited in US20190224170A1, “THERAPIES AND METHODS TO TREAT INFLAMMATORY GASTROINTESTINAL DISEASES AND DISORDERS” (The Regents of the University of California, priority 2018, published 2019).

Tested on: multiple sclerosis
Conditions: supplementation with high doses of biotin

In the case of O=C(O)CCCC[C@@H]1SC[C@@H]2NC(=O)N[C@@H]21 [biotin], the clinical response is given as “distinctive positive clinical response”.
